Source: ChEMBL document CHEMBL5029190, “A Series of Pyrazole Analogs Binding to KRASG12C as Potential Cancer Treatment” (ACS Med Chem Lett, 2022)

Biological target: GTPase KRas (Homo sapiens, UniProt P01116, G12C)
Experiment: Inhibition of human KRAS G12C mutant incubated for 2 hrs by scintillation counter based covalent competition assay

Compound	IC50 [µM]
C=CC(=O)N1CC2(CC(n3nc(-c4ccc5c(c4)CCN5C(=O)CN4CC[C@H](F)C4)c(-c4c(Cl)c(C)cc5[nH]ncc45)c3C)C2)C1 (stereo in doubt; 76a)	0.015
C=CC(=O)N1CC2(CC(n3nc(-c4ccc5c(c4)CCN5C(=O)CN4CC[C@H](F)C4)c(-c4c(Cl)c(C)cc5[nH]ncc45)c3C)C2)C1 (stereo in doubt; 76b)	13.3
